ChEMBL document CHEMBL5661943, “ASAP - In vitro antiviral effect” (2024)

Experiments:
dengue virus type 2 = test: Functional immunofluorescence assay to measure dose dependent changes in antiviral-drug inhibitory efficacy against Dengue virus type 2 Thailand/16681/84 in Vero E6/TMPRSS2 cells (cotreated with P-gp inhibitor, Elacridar). Cells are treated with antiviral candidates that are serially diluted, following infection, cells are fixed. EC50 is reported via analysis of immunofluorescence staining. The assay has been performed by Icahn School of Medicine at Mount Sinai.; assay type: organism-based, Chlorocebus sabaeus, VeroE6/TMPRSS2
Zika virus = test: EC50 is reported via analysis of immunofluorescence staining. The assay has been performed by Icahn School of Medicine at Mount Sinai.; assay type: functional, organism-based, Chlorocebus sabaeus, VeroE6/TMPRSS2

## N#Cc1cc(Cl)cc(C(=O)Nc2ccc3c(c2)CNC3)c1
Dengue virus type 2; Dengue virus, VeroE6/TMPRSS2
  EC50: > 50 µM
Dengue virus type 2; Dengue virus, VeroE6/TMPRSS2, Maximum measured 57.395 %, Minimum measured 32.413 %, P-gp concentration 2 uM, P-gp inhibitor Elacidar
  EC90: > 50 µM
Zika virus; Zika virus, VeroE6/TMPRSS2
  EC50: 47.2 µM
Zika virus; Zika virus, VeroE6/TMPRSS2, Baseline response 0 %, Hill slope -12.375, Maximum measured 129.405 %, Maximum response 100 %, Minimum measured 33.162 %, P-gp concentration 2 uM, R squared 0.602, P-gp inhibitor Elacidar
  EC90: > 50 µM

## Cc1ccc(S(=O)(=O)CNC(=O)[C@H](Nc2ccc3c(c2)CNC3)c2cc(Cl)cc3[nH]ncc23)cc1
Dengue virus type 2; Dengue virus, VeroE6/TMPRSS2
  EC50: > 50 µM
Dengue virus type 2; Dengue virus, VeroE6/TMPRSS2, Baseline response 0 %, Hill slope 0.271, Maximum measured 147.697 %, Maximum response 100 %, Minimum measured 56.785 %, P-gp concentration 2 uM, R squared 0.117, P-gp inhibitor Elacidar
  EC90: > 50 µM
Zika virus; Zika virus, VeroE6/TMPRSS2
  EC50: > 5.56 µM
Zika virus; Zika virus, VeroE6/TMPRSS2, Baseline response 0 %, Hill slope -0.504, Maximum measured 105.322 %, Maximum response 100 %, Minimum measured 58.532 %, P-gp concentration 2 uM, R squared 0.723, P-gp inhibitor Elacidar
  EC90: > 5.56 µM

## O=C(Nc1ccc2c(c1)CNC2)c1cc(Cl)ccc1SC1CCCC1
Dengue virus type 2; Dengue virus, VeroE6/TMPRSS2
  EC50: > 16.7 µM
Dengue virus type 2; Dengue virus, VeroE6/TMPRSS2, Maximum measured 58.655 %, Minimum measured 40.644 %, P-gp concentration 2 uM, P-gp inhibitor Elacidar
  EC90: > 16.7 µM
Zika virus; Zika virus, VeroE6/TMPRSS2
  EC50: > 16.7 µM
Zika virus; Zika virus, VeroE6/TMPRSS2, Maximum measured 121.888 %, Minimum measured 81.617 %, P-gp concentration 2 uM, P-gp inhibitor Elacidar
  EC90: > 16.7 µM

## N#Cc1cc(Cl)cc([C@H](C#N)Nc2ccc3c(c2)CNC3)c1
Dengue virus type 2; Dengue virus, VeroE6/TMPRSS2
  EC50: > 16.7 µM
Dengue virus type 2; Dengue virus, VeroE6/TMPRSS2, Maximum measured 121.447 %, Minimum measured 87.688 %, P-gp concentration 2 uM, P-gp inhibitor Elacidar
  EC90: > 16.7 µM
Zika virus; Zika virus, VeroE6/TMPRSS2
  EC50: > 50 µM
Zika virus; Zika virus, VeroE6/TMPRSS2, Baseline response 0 %, Hill slope -0.289, Maximum measured 115.578 %, Maximum response 100 %, Minimum measured 78.039 %, P-gp concentration 2 uM, R squared 0.102, P-gp inhibitor Elacidar
  EC90: > 50 µM

## O=C(Nc1ccc2c(c1)CNC2)c1cc(Br)cc2[nH]c(C3CCOCC3)nc12
Dengue virus type 2; Dengue virus, VeroE6/TMPRSS2
  EC50: > 5.56 µM
Dengue virus type 2; Dengue virus, VeroE6/TMPRSS2, Maximum measured 89.147 %, Minimum measured 35.738 %, P-gp concentration 2 uM, P-gp inhibitor Elacidar
  EC90: > 5.56 µM
Zika virus; Zika virus, VeroE6/TMPRSS2
  EC50: > 5.56 µM
Zika virus; Zika virus, VeroE6/TMPRSS2, Maximum measured 127.67 %, Minimum measured 33.686 %, P-gp concentration 2 uM, P-gp inhibitor Elacidar
  EC90: > 5.56 µM

## Cc1ccc2cc(Cl)cc(C(=O)Nc3ccc4c(c3)CNC4)c2n1
Dengue virus type 2; Dengue virus, VeroE6/TMPRSS2
  EC50: > 5.56 µM
Dengue virus type 2; Dengue virus, VeroE6/TMPRSS2, Maximum measured 235.971 %, Minimum measured 154.17 %, P-gp concentration 2 uM, P-gp inhibitor Elacidar
  EC90: > 5.56 µM
Zika virus; Zika virus, VeroE6/TMPRSS2
  EC50: > 16.7 µM
Zika virus; Zika virus, VeroE6/TMPRSS2, Maximum measured 117.23 %, Minimum measured 34.966 %, P-gp concentration 2 uM, P-gp inhibitor Elacidar
  EC90: > 16.7 µM

## O=C(Nc1cnc2c(c1)CNCC2)c1cc(Cl)cc2[nH]ncc12
Dengue virus type 2; Dengue virus, VeroE6/TMPRSS2
  EC50: > 50 µM
Dengue virus type 2; Dengue virus, VeroE6/TMPRSS2, Maximum measured 104.893 %, Minimum measured 59 %, P-gp concentration 2 uM, P-gp inhibitor Elacidar
  EC90: > 50 µM
Zika virus; Zika virus, VeroE6/TMPRSS2
  EC50: 45.4 µM
Zika virus; Zika virus, VeroE6/TMPRSS2, Baseline response 0 %, Hill slope -15.177, Maximum measured 54.077 %, Maximum response 44.083 %, Minimum measured 8.284 %, P-gp concentration 2 uM, R squared 0.548, P-gp inhibitor Elacidar
  EC90: > 50 µM

## O=C(NCC1CCOCC1)[C@H](Nc1ccc2c(c1)CNC2)c1cc(Cl)cc2[nH]ncc12
Dengue virus type 2; Dengue virus, VeroE6/TMPRSS2
  EC50: > 16.7 µM
Dengue virus type 2; Dengue virus, VeroE6/TMPRSS2, Maximum measured 245.258 %, Minimum measured 99.219 %, P-gp concentration 2 uM, P-gp inhibitor Elacidar
  EC90: > 16.7 µM
Zika virus; Zika virus, VeroE6/TMPRSS2
  EC50: > 16.7 µM
Zika virus; Zika virus, VeroE6/TMPRSS2, Maximum measured 73.647 %, Minimum measured 25.821 %, P-gp concentration 2 uM, P-gp inhibitor Elacidar
  EC90: > 16.7 µM

## CCOC(=O)[C@H]1[C@H](c2cc(Cl)cc(NC(=O)OCc3ccccc3)c2)[C@H]1c1cccc(-c2nnn[nH]2)c1
Dengue virus type 2; Dengue virus, VeroE6/TMPRSS2
  EC50: 10.1 µM
Dengue virus type 2; Dengue virus, VeroE6/TMPRSS2, Baseline response 0 %, Hill slope -0.678, Maximum measured 159.228 %, Maximum response 100 %, Minimum measured 7.966 %, P-gp concentration 2 uM, R squared 0.513, P-gp inhibitor Elacidar
  EC90: > 50 µM
Zika virus; Zika virus, VeroE6/TMPRSS2
  EC50: 39.5 µM
Zika virus; Zika virus, VeroE6/TMPRSS2, Baseline response 0 %, Hill slope -17.688, Maximum measured 145.242 %, Maximum response 100 %, Minimum measured 1.538 %, P-gp concentration 2 uM, R squared 0.641, P-gp inhibitor Elacidar
  EC90: 44.8 µM

## N#C[C@H](Nc1cccc(-c2nn[nH]n2)c1)c1cc(Cl)cc(NC(=O)OCc2ccccc2)c1
Dengue virus type 2; Dengue virus, VeroE6/TMPRSS2
  EC50: > 50 µM
Dengue virus type 2; Dengue virus, VeroE6/TMPRSS2, Baseline response 0 %, Hill slope -0.37, Maximum measured 135.235 %, Maximum response 100 %, Minimum measured 60.402 %, P-gp concentration 2 uM, R squared 0.119, P-gp inhibitor Elacidar
  EC90: > 50 µM
Zika virus; Zika virus, VeroE6/TMPRSS2
  EC50: > 50 µM
Zika virus; Zika virus, VeroE6/TMPRSS2, Maximum measured 138.49 %, Minimum measured 54.48 %, P-gp concentration 2 uM, P-gp inhibitor Elacidar
  EC90: > 50 µM

## c1ccc2c(CN3CCC(c4cscn4)CC3)c[nH]c2c1
Dengue virus type 2; Baseline response 0 %, Hill slope -0.247, Maximum measured 100.251 %, Maximum response 100 %, Minimum measured 62.836 %, P-gp concentration 2 uM, R squared 0.15, P-gp inhibitor Elacidar
  EC90: > 10 µM
Dengue virus type 2; Baseline response 0 %, Hill slope -0.248, Maximum measured 160.986 %, Maximum response 100 %, Minimum measured 66.91 %, P-gp concentration 2 uM, R squared 0.115, P-gp inhibitor Elacidar
  EC90: > 50 µM
Dengue virus type 2; veroe6/tmprss2
  EC50: > 50 µM
Zika virus; Zika virus, VeroE6/TMPRSS2, Maximum measured 113.51 %, Minimum measured 55.055 %, P-gp concentration 2 uM, P-gp inhibitor Elacidar
  EC90: > 10 µM
Zika virus; Zika virus, VeroE6/TMPRSS2, Maximum measured 115.408 %, Minimum measured 68.286 %, P-gp concentration 2 uM, P-gp inhibitor Elacidar
  EC90: > 50 µM
Zika virus; veroe6/tmprss2
  EC50: > 50 µM

## O=C(Nc1cc(Cl)cc(S(=O)(=O)Nc2cccc(-c3nn[nH]n3)c2)c1)OCc1ccccc1
Dengue virus type 2; Dengue virus, VeroE6/TMPRSS2
  EC50: > 50 µM
Dengue virus type 2; Dengue virus, VeroE6/TMPRSS2, Maximum measured 125.288 %, Minimum measured 43.28 %, P-gp concentration 2 uM, P-gp inhibitor Elacidar
  EC90: > 50 µM
Zika virus; Zika virus, VeroE6/TMPRSS2
  EC50: > 16.7 µM
Zika virus; Zika virus, VeroE6/TMPRSS2, Maximum measured 147.808 %, Minimum measured 131.825 %, P-gp concentration 2 uM, P-gp inhibitor Elacidar
  EC90: > 16.7 µM

## C=CC[C@H](Nc1cc(Cl)cc(NC(=O)OCc2ccccc2)c1)c1cccc(-c2nn[nH]n2)c1
Dengue virus type 2; Dengue virus, VeroE6/TMPRSS2
  EC50: 0.449 µM
  EC90: 4.92 µM
Zika virus; Zika virus, VeroE6/TMPRSS2
  EC50: 14.2 µM
Zika virus; Zika virus, VeroE6/TMPRSS2, Baseline response 0 %, Hill slope -24.201, Maximum measured 231.442 %, Maximum response 100 %, Minimum measured 2.044 %, P-gp concentration 2 uM, R squared 0.135, P-gp inhibitor Elacidar
  EC90: 15.6 µM

## NCCCc1ccnc(NC(=O)c2cc(Cl)cc(NC(=O)OCc3ccccc3)c2)c1
Dengue virus type 2; Dengue virus, VeroE6/TMPRSS2
  EC50: > 5.56 µM
Dengue virus type 2; Dengue virus, VeroE6/TMPRSS2, Baseline response 0 %, Hill slope -1.225, Maximum measured 82.874 %, Maximum response 60 %, Minimum measured 33.609 %, P-gp concentration 2 uM, R squared 0.331, P-gp inhibitor Elacidar
  EC90: > 5.56 µM
Zika virus; Zika virus, VeroE6/TMPRSS2
  EC50: 0.532 µM
  EC90: 3.24 µM

## CNC(=O)[C@H](Nc1cc(Cl)cc(NC(=O)OCc2ccccc2)c1)c1cccc(-c2nn[nH]n2)c1
Dengue virus type 2; Dengue virus, VeroE6/TMPRSS2
  EC50: > 50 µM
Dengue virus type 2; Dengue virus, VeroE6/TMPRSS2, Baseline response 0 %, Hill slope -0.094, Maximum measured 132.889 %, Maximum response 100 %, Minimum measured 51.11 %, P-gp concentration 2 uM, R squared 0.041, P-gp inhibitor Elacidar
  EC90: > 50 µM
Zika virus; Zika virus, VeroE6/TMPRSS2
  EC50: > 50 µM
Zika virus; Zika virus, VeroE6/TMPRSS2, Maximum measured 214.272 %, Minimum measured 122.906 %, P-gp concentration 2 uM, P-gp inhibitor Elacidar
  EC90: > 50 µM

## O=C(Nc1cc(Cl)cc(C(=O)Nc2cc(-c3nnn[nH]3)ccc2F)c1)OCc1ccccc1
Dengue virus type 2; Dengue virus, VeroE6/TMPRSS2
  EC50: > 50 µM
Dengue virus type 2; Dengue virus, VeroE6/TMPRSS2, Baseline response 0 %, Hill slope -0.699, Maximum measured 181.18 %, Maximum response 100 %, Minimum measured 75.606 %, P-gp concentration 2 uM, R squared 0.051, P-gp inhibitor Elacidar
  EC90: > 50 µM
Zika virus; Zika virus, VeroE6/TMPRSS2
  EC50: > 16.7 µM
Zika virus; Zika virus, VeroE6/TMPRSS2, Maximum measured 136.099 %, Minimum measured 71.047 %, P-gp concentration 2 uM, P-gp inhibitor Elacidar
  EC90: > 16.7 µM

## O=C(Nc1cc(Cl)cc(N[C@H](C#CCO)c2ccc(-c3nn[nH]n3)cc2)c1)OCc1ccccc1
Dengue virus type 2; Dengue virus, VeroE6/TMPRSS2
  EC50: > 50 µM
Dengue virus type 2; Dengue virus, VeroE6/TMPRSS2, Baseline response 0 %, Hill slope -0.373, Maximum measured 106.055 %, Maximum response 100 %, Minimum measured 56.8 %, P-gp concentration 2 uM, R squared 0.212, P-gp inhibitor Elacidar
  EC90: > 50 µM
Zika virus; Zika virus, VeroE6/TMPRSS2
  EC50: > 16.7 µM
Zika virus; Zika virus, VeroE6/TMPRSS2, Maximum measured 78.226 %, Minimum measured 29.543 %, P-gp concentration 2 uM, P-gp inhibitor Elacidar
  EC90: > 16.7 µM

## O=C(O)c1cc(Cl)ccc1S(=O)(=O)NC1CCN(c2nc(C3CC3)cc(C(F)(F)F)n2)CC1
Dengue virus type 2; Dengue virus, VeroE6/TMPRSS2, Maximum measured 136.17 %, Minimum measured 94.607 %, P-gp concentration 2 uM, P-gp inhibitor Elacidar
  EC90: > 16.7 µM
Dengue virus type 2; Dengue virus, VeroE6/TMPRSS2, Baseline response 0 %, Hill slope -0.112, Maximum measured 104.285 %, Maximum response 100 %, Minimum measured 47.241 %, P-gp concentration 2 uM, R squared 0.035, P-gp inhibitor Elacidar
  EC90: > 3.33 µM
Dengue virus type 2; veroe6/tmprss2
  EC50: > 16.7 µM
Zika virus; Zika virus, VeroE6/TMPRSS2, Maximum measured 121.005 %, Minimum measured 84.589 %, P-gp concentration 2 uM, P-gp inhibitor Elacidar
  EC90: > 16.7 µM
Zika virus; Zika virus, VeroE6/TMPRSS2, Baseline response 0 %, Hill slope -0.273, Maximum measured 117.096 %, Maximum response 100 %, Minimum measured 55.547 %, P-gp concentration 2 uM, R squared 0.133, P-gp inhibitor Elacidar
  EC90: > 3.33 µM
Zika virus; veroe6/tmprss2
  EC50: > 16.7 µM
